# In US20240197737A1, “APPLICATION OF COMPOUND IN PREPARATION OF INHIBITORY DRUG TARGETING ERBB2 MUTANT” (SHANGHAI PHARMACEUTICALS HOLDING CO., LTD., priority 2021, published 2024):
# What was measured:
# [1] = test system: Ba/F3 ErbB2 A775_G776insYVMA mouse xenograft; assay: Efficacy testing in NPSG mouse xenograft model; type: in vivo; details: for TGI (%): administration for 13 days; for Efficacy (in words): continuous administration for 13 days
# Excerpt: NPSG male mice (Shanghai Jihui Laboratory Animal Care Co., Ltd., Certificate: No. 20170012006783) were subcutaneously inoculated on the right shoulder with Ba/F3 ErbB2 A775_G776insYVMA cells (cultured in vitro, 9×10^7 cells obtained). When the average tumor volume reached 130 mm^3, the mice were randomly divided into six groups based on tumor volume and body weight, with 10 mice in each group, and administration was started immediately. After the initiation of administration, the mice's body weight and tumor volume were measured twice a week, with the administration continued until Day 13 of the experiment. On Day 14 of the experiment, post-administration sample collection was conducted for each group.
# Note: Data are presented as mean±standard error; control group is the group without any compound administered.
# [2] = test system: Ba/F3 ErbB2 A775_G776insYVMA; assay: ErbB2 mutant cell inhibition test (CTG, 72 hours); type: cell-based
# Method: Cells were cultured, harvested during their logarithmic growth phase, and counted using a platelet counter. Cell viability was verified to be above 90% by trypan blue exclusion assay. After in vitro culture, 2×10^6 cells were obtained. […] A 10× drug solution was prepared, with a maximum concentration of 10 μM for the assay, and serially diluted 3-fold to nine concentrations. 10 μL of the drug solution was added to each well of the 96-well plate inoculated with the cells, and three duplicate wells were set for each drug concentration.
# [3] = test system: NCI-H1781 ErbB2 exon20ins (G766 > VC); assay: ErbB2 mutant cell inhibition test (CTG, 72 hours); type: cell-based, Human
# Method: Cells were cultured, harvested during their logarithmic growth phase, and counted using a platelet counter. Cell viability was verified to be above 90% by trypan blue exclusion assay. After in vitro culture, 2×10^6 cells were obtained. The cell suspension was aliquoted into a 96-well plate at 1×10^3 cells per well (90 μL/well), and incubated overnight under conditions of 37° C., 5% CO2, and 95% humidity. A 10× drug solution was prepared, with a maximum concentration of 10 μM for the assay, and serially diluted 3-fold to nine concentrations. 10 μL of the drug solution was added to each well of the 96-well plate inoculated with the cells, and three duplicate wells were set for each drug concentration. The 96-well plate, now containing the drug-treated cells, was cultured under conditions of 37° C., 5% CO2, and 95% humidity for an additional 72 hours before CTG analysis was performed.
# ErbB2 (D769Y) = biological target: T1, ErbB2 (D769Y) (Homo sapiens, UniProt P04626, D769Y); assay: ErbB2 mutant inhibition assay (33P-ATP radiometric kinase assay, Reaction Biology); type: biochemical; details: ATP 10 μM, 20 min preincubation, 2 h reaction; read-out: Compound IC50 ErbB2 (D769Y)
# T1 construct: purchased Reaction Biology Corporation
# T1 sequence (P04626 23-1255 D769Y): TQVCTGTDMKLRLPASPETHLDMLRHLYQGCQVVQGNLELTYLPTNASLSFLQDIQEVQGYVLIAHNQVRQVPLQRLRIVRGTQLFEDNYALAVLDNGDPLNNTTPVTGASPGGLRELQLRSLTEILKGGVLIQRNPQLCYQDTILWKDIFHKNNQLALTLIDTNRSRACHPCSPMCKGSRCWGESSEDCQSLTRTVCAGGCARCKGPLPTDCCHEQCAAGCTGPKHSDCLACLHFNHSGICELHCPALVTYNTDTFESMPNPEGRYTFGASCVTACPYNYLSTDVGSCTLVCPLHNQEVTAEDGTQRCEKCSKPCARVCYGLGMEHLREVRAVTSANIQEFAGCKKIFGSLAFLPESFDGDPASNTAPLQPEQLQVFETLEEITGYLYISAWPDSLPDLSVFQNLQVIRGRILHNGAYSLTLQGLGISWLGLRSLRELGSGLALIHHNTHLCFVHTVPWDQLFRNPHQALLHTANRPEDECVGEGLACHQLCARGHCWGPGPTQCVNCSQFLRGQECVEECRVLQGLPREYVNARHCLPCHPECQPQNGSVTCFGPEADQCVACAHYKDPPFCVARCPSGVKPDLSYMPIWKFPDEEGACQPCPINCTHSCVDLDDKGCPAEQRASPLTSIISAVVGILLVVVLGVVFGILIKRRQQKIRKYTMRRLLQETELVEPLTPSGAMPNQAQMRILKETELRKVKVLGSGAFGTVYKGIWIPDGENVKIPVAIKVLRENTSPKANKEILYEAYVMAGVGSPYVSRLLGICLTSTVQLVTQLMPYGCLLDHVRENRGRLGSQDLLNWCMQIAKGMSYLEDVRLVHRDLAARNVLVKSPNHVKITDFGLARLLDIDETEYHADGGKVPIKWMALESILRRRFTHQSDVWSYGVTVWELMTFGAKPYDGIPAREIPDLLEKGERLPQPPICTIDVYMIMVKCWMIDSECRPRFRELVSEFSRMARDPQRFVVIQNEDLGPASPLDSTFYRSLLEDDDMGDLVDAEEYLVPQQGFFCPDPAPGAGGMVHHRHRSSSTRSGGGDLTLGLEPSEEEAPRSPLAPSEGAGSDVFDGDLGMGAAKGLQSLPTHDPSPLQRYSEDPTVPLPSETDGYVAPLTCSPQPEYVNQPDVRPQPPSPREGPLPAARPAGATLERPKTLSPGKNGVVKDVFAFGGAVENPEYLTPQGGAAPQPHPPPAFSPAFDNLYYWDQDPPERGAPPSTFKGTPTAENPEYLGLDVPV
# Method: (§1) The reagents and materials used in the assay, as well as the testing procedure, were provided and carried out by Reaction Biology Corporation. The specific steps were as follows: • 1. […] Conditions for the enzyme reaction assay: The test compounds were incubated for 20 minutes, ATP concentration was set at 10 μM, and the total duration of the enzyme reaction was 2 hours. • 3. Experimental steps for the enzyme reaction
# (§2) The enzyme reaction buffer was 20 mM HEPES at a pH of 7.5, 10 mM MgCl2, 2 mM MnCl2, 1 mM EGTA, 0.01% Brij35, 0.02 mg/mL BSA, 0.1 mM Na3VO4, 2 mM DTT, and 1% DMSO.
# (§3) Kinase activity %=(Remaining kinase activity of test compound samples/Kinase activity of solvent control samples (DMSO))*100%
# (§4) The IC50 of the compound was calculated by fitting the kinase activity % at different compound concentrations.
# ErbB2 (D769H) = biological target: T2, ErbB2 (D769H) (Homo sapiens, UniProt P04626, D769H); assay: as above; type: biochemical; details: ATP 10 μM, 20 min preincubation, 2 h reaction; read-out: Compound IC50 ErbB2 (D769H)
# T2 construct: purchased Reaction Biology Corporation
# T2 sequence (P04626 23-1255 D769H): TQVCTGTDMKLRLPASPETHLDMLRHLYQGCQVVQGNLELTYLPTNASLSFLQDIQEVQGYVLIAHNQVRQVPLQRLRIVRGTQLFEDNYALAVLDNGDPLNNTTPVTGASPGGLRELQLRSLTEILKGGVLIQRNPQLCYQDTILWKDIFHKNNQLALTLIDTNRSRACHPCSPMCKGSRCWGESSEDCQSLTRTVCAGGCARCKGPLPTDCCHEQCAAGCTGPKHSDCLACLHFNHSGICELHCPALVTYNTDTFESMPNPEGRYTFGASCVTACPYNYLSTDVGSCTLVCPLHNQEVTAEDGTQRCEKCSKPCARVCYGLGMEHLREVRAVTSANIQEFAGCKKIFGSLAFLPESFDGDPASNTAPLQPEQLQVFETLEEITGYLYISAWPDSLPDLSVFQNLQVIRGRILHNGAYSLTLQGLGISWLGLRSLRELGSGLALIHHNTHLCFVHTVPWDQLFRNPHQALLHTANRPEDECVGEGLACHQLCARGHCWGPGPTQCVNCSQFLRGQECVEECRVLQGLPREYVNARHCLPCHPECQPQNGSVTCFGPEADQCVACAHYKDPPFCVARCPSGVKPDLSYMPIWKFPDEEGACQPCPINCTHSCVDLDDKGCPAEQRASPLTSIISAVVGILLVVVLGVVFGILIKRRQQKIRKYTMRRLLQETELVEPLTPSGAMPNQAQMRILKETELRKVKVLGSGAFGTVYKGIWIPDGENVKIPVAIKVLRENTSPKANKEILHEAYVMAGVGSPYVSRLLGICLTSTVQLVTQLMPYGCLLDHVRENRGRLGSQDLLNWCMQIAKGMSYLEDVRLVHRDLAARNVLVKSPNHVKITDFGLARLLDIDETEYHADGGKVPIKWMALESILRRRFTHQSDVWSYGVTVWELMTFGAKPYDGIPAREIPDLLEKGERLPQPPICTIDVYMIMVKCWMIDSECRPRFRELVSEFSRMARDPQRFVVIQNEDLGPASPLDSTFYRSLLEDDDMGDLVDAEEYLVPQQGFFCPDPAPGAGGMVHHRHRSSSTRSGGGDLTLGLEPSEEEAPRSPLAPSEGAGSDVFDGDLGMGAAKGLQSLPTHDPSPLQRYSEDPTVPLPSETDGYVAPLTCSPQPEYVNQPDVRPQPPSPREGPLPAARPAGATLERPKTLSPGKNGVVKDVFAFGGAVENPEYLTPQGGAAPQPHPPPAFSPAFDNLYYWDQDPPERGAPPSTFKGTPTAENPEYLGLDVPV
# Method: as §1, §2, §3, §4
# ErbB2 (R896C) = biological target: T3, ErbB2 (R896C) (Homo sapiens, UniProt P04626, R896C); assay: as above; type: biochemical; details: ATP 10 μM, 20 min preincubation, 2 h reaction; read-out: Compound IC50 ErbB2 (R896C)
# T3 construct: purchased Reaction Biology Corporation
# T3 sequence (P04626 23-1255 R896C): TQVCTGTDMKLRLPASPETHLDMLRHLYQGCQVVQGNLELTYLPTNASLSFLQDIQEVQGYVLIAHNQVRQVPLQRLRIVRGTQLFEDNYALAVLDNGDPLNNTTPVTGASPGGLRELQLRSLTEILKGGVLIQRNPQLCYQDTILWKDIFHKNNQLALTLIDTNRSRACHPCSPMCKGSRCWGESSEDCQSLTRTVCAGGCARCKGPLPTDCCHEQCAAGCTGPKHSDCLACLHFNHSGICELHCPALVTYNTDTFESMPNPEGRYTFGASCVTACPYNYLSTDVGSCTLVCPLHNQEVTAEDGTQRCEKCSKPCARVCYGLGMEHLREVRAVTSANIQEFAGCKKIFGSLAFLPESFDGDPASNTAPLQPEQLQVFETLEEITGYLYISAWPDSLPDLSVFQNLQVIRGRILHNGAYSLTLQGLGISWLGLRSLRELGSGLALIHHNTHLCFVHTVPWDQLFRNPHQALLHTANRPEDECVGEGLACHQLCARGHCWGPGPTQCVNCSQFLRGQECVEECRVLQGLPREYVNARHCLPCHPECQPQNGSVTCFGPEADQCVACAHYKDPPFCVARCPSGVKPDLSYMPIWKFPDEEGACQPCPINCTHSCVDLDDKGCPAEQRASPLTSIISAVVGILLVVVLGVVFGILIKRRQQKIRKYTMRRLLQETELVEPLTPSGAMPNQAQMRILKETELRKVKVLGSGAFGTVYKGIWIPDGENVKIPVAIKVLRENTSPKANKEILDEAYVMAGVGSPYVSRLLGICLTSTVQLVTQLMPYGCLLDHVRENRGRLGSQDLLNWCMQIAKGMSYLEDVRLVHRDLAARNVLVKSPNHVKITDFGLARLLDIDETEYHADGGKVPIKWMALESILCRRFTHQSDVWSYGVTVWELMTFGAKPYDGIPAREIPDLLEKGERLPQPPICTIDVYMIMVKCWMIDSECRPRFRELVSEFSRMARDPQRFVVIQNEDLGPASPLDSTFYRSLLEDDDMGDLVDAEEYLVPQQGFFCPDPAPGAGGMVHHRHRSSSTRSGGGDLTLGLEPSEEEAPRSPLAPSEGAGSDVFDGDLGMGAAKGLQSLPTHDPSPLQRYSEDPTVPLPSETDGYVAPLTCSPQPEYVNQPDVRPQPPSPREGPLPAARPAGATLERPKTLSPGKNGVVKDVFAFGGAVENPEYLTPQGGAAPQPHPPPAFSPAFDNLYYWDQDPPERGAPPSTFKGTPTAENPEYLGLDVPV
# Method: as §1, §2, §3, §4
# ErbB2 (V777L) = biological target: T4, ErbB2 (V777L) (Homo sapiens, UniProt P04626, V777L); assay: as above; type: biochemical; details: ATP 10 μM, 20 min preincubation, 2 h reaction; read-out: Compound IC50 ErbB2 (V777L)
# T4 construct: purchased Reaction Biology Corporation
# T4 sequence (P04626 23-1255 V777L): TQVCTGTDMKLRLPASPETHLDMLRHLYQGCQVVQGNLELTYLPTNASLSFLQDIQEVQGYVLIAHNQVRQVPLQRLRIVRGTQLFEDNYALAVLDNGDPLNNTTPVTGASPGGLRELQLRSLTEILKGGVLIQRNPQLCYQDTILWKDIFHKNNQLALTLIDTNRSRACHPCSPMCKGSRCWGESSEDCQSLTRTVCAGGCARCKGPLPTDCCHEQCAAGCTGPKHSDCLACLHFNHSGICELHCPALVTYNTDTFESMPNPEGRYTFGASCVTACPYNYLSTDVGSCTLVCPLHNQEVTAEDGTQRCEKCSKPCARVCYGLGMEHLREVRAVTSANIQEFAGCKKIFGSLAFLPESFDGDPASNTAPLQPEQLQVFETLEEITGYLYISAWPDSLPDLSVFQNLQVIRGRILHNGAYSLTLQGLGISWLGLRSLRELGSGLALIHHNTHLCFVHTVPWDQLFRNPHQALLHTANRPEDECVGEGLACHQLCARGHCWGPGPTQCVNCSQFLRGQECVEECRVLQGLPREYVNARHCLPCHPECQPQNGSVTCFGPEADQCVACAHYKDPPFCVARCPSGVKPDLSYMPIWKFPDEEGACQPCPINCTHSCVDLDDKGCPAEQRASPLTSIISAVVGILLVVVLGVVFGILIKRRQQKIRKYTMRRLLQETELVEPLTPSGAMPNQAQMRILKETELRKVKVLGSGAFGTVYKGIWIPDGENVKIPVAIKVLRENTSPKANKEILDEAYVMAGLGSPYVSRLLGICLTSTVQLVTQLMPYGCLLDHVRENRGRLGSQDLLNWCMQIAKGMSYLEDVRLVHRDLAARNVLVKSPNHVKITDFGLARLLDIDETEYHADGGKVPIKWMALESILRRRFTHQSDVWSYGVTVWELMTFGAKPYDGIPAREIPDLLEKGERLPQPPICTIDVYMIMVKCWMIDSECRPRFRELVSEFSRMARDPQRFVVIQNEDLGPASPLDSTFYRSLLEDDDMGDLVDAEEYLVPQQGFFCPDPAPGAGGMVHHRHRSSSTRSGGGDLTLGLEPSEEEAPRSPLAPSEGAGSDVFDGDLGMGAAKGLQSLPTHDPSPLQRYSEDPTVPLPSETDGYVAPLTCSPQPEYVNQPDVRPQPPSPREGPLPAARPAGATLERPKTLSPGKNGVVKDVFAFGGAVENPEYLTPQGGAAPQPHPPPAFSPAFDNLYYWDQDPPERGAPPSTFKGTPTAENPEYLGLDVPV
# Method: as §1, §2, §3, §4
structure (smiles),measurement,setting,value
CCOc1cc2ncnc(Nc3ccc(Oc4ccn5ncnc5c4)c(C)c3)c2cc1NC(=O)/C(F)=C/[C@H]1CCCN1C [Compound I],Tumor volume,"[1]; 10 mg/kg, Day 0, mean ± standard error",130.9 ± 4.72 mm^3
same,Tumor volume,"[1]; 10 mg/kg, Day 4, mean ± standard error",112.1 ± 4.71 mm^3
same,Tumor volume,"[1]; 10 mg/kg, Day 7, mean ± standard error",157.7 ± 6.95 mm^3
same,Tumor volume,"[1]; 10 mg/kg, Day 11, mean ± standard error",160.2 ± 6.3 mm^3
same,Tumor volume,"[1]; 10 mg/kg, Day 13, mean ± standard error",172.9 ± 11.16 mm^3
same,TGI (%),[1]; 10 mg/kg,95%
same,Efficacy (in words),[1]; 10 mg/kg,strong efficacy
same,Tumor volume,"[1]; 20 mg/kg, Day 0, mean ± standard error",130.2 ± 5.25 mm^3
same,Tumor volume,"[1]; 20 mg/kg, Day 4, mean ± standard error",69.2 ± 2.69 mm^3
same,Tumor volume,"[1]; 20 mg/kg, Day 7, mean ± standard error",82.7 ± 4.74 mm^3
same,Tumor volume,"[1]; 20 mg/kg, Day 11, mean ± standard error",93.5 ± 5.75 mm^3
same,Tumor volume,"[1]; 20 mg/kg, Day 13, mean ± standard error",71.1 ± 4.51 mm^3
same,TGI (%),[1]; 20 mg/kg,107%
same,Efficacy (in words),[1]; 20 mg/kg,strong efficacy
same,Tumor volume,"[1]; 40 mg/kg, Day 0, mean ± standard error",130.1 ± 5 mm^3
same,Tumor volume,"[1]; 40 mg/kg, Day 4, mean ± standard error",63.8 ± 4.44 mm^3
same,Tumor volume,"[1]; 40 mg/kg, Day 7, mean ± standard error",36.3 ± 11.12 mm^3
same,Tumor volume,"[1]; 40 mg/kg, Day 11, mean ± standard error",21.5 ± 9.26 mm^3
same,Tumor volume,"[1]; 40 mg/kg, Day 13, mean ± standard error",20.6 ± 8.61 mm^3
same,TGI (%),[1]; 40 mg/kg,112%
same,Efficacy (in words),[1]; 40 mg/kg,strong efficacy
same,Tumor inhibitory effect compared with the other test groups (in words),"[1]; 40 mg/kg, statistically different from other test groups (p-value less than 0.01)",strongest tumor inhibitory effect
same,Inhibitory activity on cell proliferation (in words),[2]; Ba/F3 ErbB2 A775_G776insYVMA mutant cell line,good inhibitory activity
same,IC50,"[2]; Mus musculus, BaF3, Ba/F3 ErbB2 A775_G776insYVMA, 72 hours, CTG",5 nM
same,IC50,"[3]; Homo sapiens, NCI-H1781 ErbB2 exon20ins (G766 > VC), 72 hours, CTG",35.8 nM
same,Inhibitory activity on cell proliferation (in words),[3]; NCI-H1781 mutant cell line,good inhibitory activity
same,IC50,ErbB2 (D769Y),1.4 nM
same,IC50,ErbB2 (D769H),0.716 nM
same,IC50,ErbB2 (R896C),0.713 nM
same,IC50,ErbB2 (V777L),0.312 nM
